From US9315451B2, “Tetracycline compounds” (priority 2009, dated 2016)
Read-outs that look alike come from different tables or passages of the source.

Legend:
[1] = system: S. aureus Smith (ATCC 13709); experiment: Mouse systemic infection (septicemia) model, S. aureus Smith; assay type: in vivo; details: Staphylococcus aureus, CD-1 female mice; for responders at 3 mg/kg: ATCC13709, iv, IV 3 mg/kg one hour post infection, read-out: SA Smith septicemia survival IV (3 mg/kg); for responders at 3 mg/kg / responders at 30 mg/kg: 48 h, survival at 48 hours; for responders at 30 mg/kg: ATCC13709, po, PO 30 mg/kg one hour post infection, read-out: SA Smith septicemia survival PO (30 mg/kg); for ED50: ATCC13709, dose that prevents 50% of the mice from death, 48 hours
Procedure, shortened: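 Female CD-1 mice (18-22 g) infected IP with an inoculum lethal to all within 24–48 h. Compound given 1 h post-infection IV ([…]) or PO ([…]), typically six mice per dose group; survival followed for 48 h and PD50 (mg/kg) derived from 48 h survival.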

[2] = system: tetracycline-resistant tet(M) MRSA strain SA191; experiment: Neutropenic respiratory infection model for MRSA (murine lung infection); assay type: in vivo, Staphylococcus aureus; details: neutropenic BALB/c mice, SA191 intranasal, 50 mg/kg orally at 2 and 12 hours, lung CFU at 24 hours
Procedure: Neutropenic Respiratory Infection Model for MRSA
Compounds were tested in a neutropenic BALB/c murine model of lung infection challenged with a tetracycline-resistant tet(M) MRSA strain SA191 infected via intranasal administration. At 2 and 12 hours mice were dosed orally with 50 mg/kg compound. At 24 hours following initiation of treatment, mice were euthanized and bacterial reduction in the lung was quantified by plating lung homogenates. Data was recorded as log10 reduction in lung colony forming units versus an untreated control group.

[3] = system: tetracycline-resistant tet(M) S. pneumoniae strain SP160; experiment: Neutropenic respiratory infection model for S. pneumoniae (murine lung infection); assay type: in vivo; details: neutropenic BALB/c mice, SP160 intranasal, 30 mg/kg orally at 2 and 12 hours post-infection, lung CFU at 24 hours
Procedure: Neutropenic Respiratory Infection Models for S. pneumoniae
Compounds were tested in a neutropenic BALB/c murine model of lung infection challenged with tetracycline-resistant tet(M) S. pneumoniae strain SP160. Mice were made neutropenic by pre-treatment with cyclophosphamide and infected with SP160 via intranasal administration. Mice were dosed orally with 30 mg/kg compound at 2 and 12 hours post-infection. At 24 hours following initiation of treatment, mice were euthanized and bacterial reduction in the lung was quantified by plating lung homogenates. Data was recorded as log10 reduction in lung colony forming units versus an untreated control group.

[4] = system: K. pneumoniae ESBL Isolate KP453; experiment: Murine kidney infection model, K. pneumoniae ESBL isolate KP453; assay type: in vivo; details: BALB/c mice; for log reduction at 50 mg/kg: Klebsiella pneumoniae, po, 36 h, PO 50 mg/kg at 9 and 24 hours post infection, read-out: KP453 ESBL UTI PO, log10 reduction in CFUs in the kidney versus untreated controls; for KP453 ESBL UTI IV, log10 reduction in CFUs in the kidney versus untreated controls: IV 20 mg/kg
Procedure: (§1) Kidney Infection Models for Uropathogenic E. coli EC200 and K. pneumoniae ESBL Isolate KP453
Compounds were also tested in BALB/c murine kidney infection model challenged with levofloxacin-resistant, ESBL^+ strain KP453 via intravenous injection with 2% carageenen. At 9 and 24 hours post infection mice were treated orally with 50 mg/kg of test compound. For IV administration, test compounds were dosed at 20 mg/kg. At 36 hours following initiation of treatment, mice were euthanized and bacterial reduction in the kidney was quantified by plating homogenates. Results are reported in Table D as log10 reduction in colony forming units (CFUs) in the kidney versus untreated controls (receiving no test compound).

[5] = system: Uropathogenic E. coli EC200; experiment: Murine kidney infection model, uropathogenic E. coli EC200; assay type: in vivo; details: BALB/c mice; for log reduction at 2 mg/kg: Escherichia coli, po, 36 h, PO 2 mg/kg at 12 and 24 hours post infection, read-out: EC200 UTI PO, log10 reduction in CFUs in the kidney versus untreated controls; for EC200 UTI IV, log10 reduction in CFUs in the kidney versus untreated controls: @ 5 mpk in cells (column head 3 mg/kg)
Procedure: as §1
Compounds were tested in a BALB/c murine kidney infection model challenged with tetracycline-resistant E. coli strain uropathogenic […] via intravenous injection. […] For IV administration test compound was dosed at 3 mg/kg. Thirty-six hours following initiation of treatment, mice were euthanized and bacterial reduction in the kidney was quantified by plating kidney homogenates. Results are reported in Table D as log10 reduction in colony forming units (CFUs) in the kidney versus untreated controls (receiving no test compound).

[6] = Pharmacokinetic studies in rats; assay type: in vivo; details: rat, plasma, male Sprague Dawley rats, fasted; for clearance: read-out: Cl, IV Rat PK; for bioavailability: oral 10 mg/kg vs IV 1 mg/kg, read-out: % F (oral bioavailability), Oral Rat PK; for Cmax: read-out: Cmax, IV Rat PK
Procedure: Pharmacokinetic Studies in Rats Test compounds were evaluated in fasted (no food for 18 hours prior to dosing) male Sprague Dawley rats (3 animals per group) by administration of 1 mg/kg intravenously into the jugular vein and […] by oral gavage. Ten plasma samples were drawn for each dosing route up to 24 hours into heparin-coated vacutainer tubes. The plasma concentrations of the test compounds were quantified by LC/MS/MS using an internal standards. WinNONLIN was used to determine PK parameters ±standard deviation (AUC, Cmax, CL, Vss and % oral bioavailabilty (% F) and are set forth in Table F.

S. aureus ATCC 13709 = experiment: Neutropenic thigh model; assay type: in vivo; details: neutropenic female CD-1 mice, IV, doses ranging 0.3 to 30 or 0.3 to 20 mg/kg, 24 hours post treatment
Procedure: Neutropenic Thigh Model Female CD-1 mice were pre-treated with cyclophosphamide to render the mice neutropenic. Mice were infected with S. aureus ATCC 13709 via injection of 0.1 ml into the right thigh muscle of each mouse. One and a half hours post infection mice were treated IV with test compounds in doses ranging from 0.3 to 30 mg/kg or 0.3 to 20 mg/kg. Four mice were treated with each drug concentration. Twenty-four hours post treatment, mice were euthanized by CO2 inhalation. The right thighs of the mice were aseptically removed, weighed, homogenized, serially diluted, and plated on TSA medium. The plates were incubated overnight at 37° C. in 5% CO2. Colony forming units per gram of thigh was calculated by enumerating the plated colonies then adjusting for serial dilutions and the weight of the thigh.

Monkey PK = assay type: in vivo; details: cynomolgus monkey, plasma, cynomolgus monkeys
Procedure: Compounds S24-9-23 and S16-10-161 were evaluated in 3 non-naïve cynomolgus monkeys. Each animal received a single IV dose of 1 mg/kg and after a 7-day washout, received a single PO dose of 10 mg/kg. Nine to ten plasma samples were drawn for each dosing route up to 24 hours into heparin-coated vacutainer tubes. Dose formulations were verified with a 5-point calibration curve. The plasma concentration of the compound was quantified by LC/MS/MS using an internal standard.

[7] = IV 1 mg/kg, read-out: AUC, IV Rat PK
[8] = oral gavage 10 mg/kg, read-out: AUC, Oral Rat PK

CN(C)[C@@H]1C(O)=C(C(N)=O)C(=O)[C@@]2(O)C(O)=C3C(=O)c4c(O)c(N)c(CN5CCCCCC5)c(Cl)c4C[C@H]3C[C@@H]12 [Compound S29-2-4]
responders at 3 mg/kg [1]: 100% | responders at 30 mg/kg [1]: 83% | Bacterial Reduction in the Lung (Log10 change from 24 hour control) [2]: −1.29 Log10

C[C@H]1CC[C@H](C)N1Cc1cc(O)c2c(c1Cl)C[C@H]1C[C@H]3[C@H](N(C)C)C(O)=C(C(N)=O)C(=O)[C@@]3(O)C(O)=C1C2=O [Compound S15-13-223]
Bacterial Reduction in the Lung (Log10 change from 24 hour control) [3]: −0.12 Log10 | responders at 3 mg/kg [1]: 100% | responders at 30 mg/kg [1]: 100% | log reduction at 50 mg/kg [4]: 1.32 | log reduction at 2 mg/kg [5]: 2.27

CC(C)CNCc1cc(O)c2c(c1F)C[C@H]1C[C@H]3[C@H](N(C)C)C(O)=C(C(N)=O)C(=O)[C@@]3(O)C(O)=C1C2=O [Compound S2-4-14]
clearance ([6]; IV 1 mg/kg): 0.233 L/h/kg | bioavailability [6]: 13.7% | AUC [6, 7]: 4.43 µg·h/mL | Cmax ([6]; IV 1 mg/kg): 0.667 µg/mL | AUC [6, 8]: 6.16 µg·h/mL | log10 REDUCTION in colony forming units versus untreated control group (thigh) (S. aureus ATCC 13709): 3.68 log10 | responders at 3 mg/kg [1]: 100% | responders at 30 mg/kg [1]: 100% | ED50 ([1]; IV, read-out: SA Smith septicemia PD50 IV): 0.84 mg/kg | ED50 ([1]; PO, read-out: SA Smith septicemia PD50 PO): 12.2 mg/kg

COc1c(CN(C)C(C)(C)C2CC2)cc(O)c2c1C[C@H]1C[C@H]3[C@H](N(C)C)C(O)=C(C(N)=O)C(=O)[C@@]3(O)C(O)=C1C2=O [S24-9-21]
Bacterial Reduction in the Lung (Log10 change from 24 hour control) [3]: −0.89 Log10 | responders at 3 mg/kg [1]: 100% | responders at 30 mg/kg [1]: 100% | Bacterial Reduction in the Lung (Log10 change from 24 hour control) [2]: −1.98 Log10 | KP453 ESBL UTI IV, log10 reduction in CFUs in the kidney versus untreated controls [4]: −2.87 log10 | log reduction at 50 mg/kg [4]: 2.16 | EC200 UTI IV, log10 reduction in CFUs in the kidney versus untreated controls [5]: @ 5 mpk −4.09 log10 | log reduction at 2 mg/kg [5]: 2.3

CN(C)c1c(CN2CCCCC2)cc(O)c2c1C[C@H]1C[C@H]3[C@H](N(C)C)C(O)=C(C(N)=O)C(=O)[C@@]3(O)C(O)=C1C2=O [Compound S16-10-161]
bioavailability (Monkey PK; PO 10 mg/kg vs IV 1 mg/kg, read-out: % F (oral bioavailability), monkey): 42.7% | clearance (Monkey PK; single IV dose of 1 mg/kg, read-out: Cl, IV, monkey (printed C1, mL/hr) (converted)): 184 mL/h | Vd (Monkey PK; single IV dose of 1 mg/kg, read-out: Vdss, IV, monkey (unit inferred)): 4.05 L/kg | AUC (Monkey PK; single IV dose of 1 mg/kg, read-out: AUC, IV, monkey): 5.68 µg·h/mL | Cmax (Monkey PK; single IV dose of 1 mg/kg, read-out: Cmax, IV, monkey (unit inferred)): 0.861 µg/mL | AUC (Monkey PK; single PO dose of 10 mg/kg, read-out: AUC, oral, monkey): 26 µg·h/mL | Cmax (Monkey PK; single PO dose of 10 mg/kg, read-out: Cmax, oral, monkey): 0.982 µg/mL | clearance ([6]; IV 1 mg/kg): 0.768 L/h/kg | bioavailability [6]: 31.6% | AUC [6, 7]: 1.31 µg·h/mL | Cmax ([6]; IV 1 mg/kg): 0.689 µg/mL | AUC [6, 8]: 4.44 µg·h/mL | responders at 3 mg/kg [1]: 100% | responders at 30 mg/kg [1]: 100% | KP453 ESBL UTI IV, log10 reduction in CFUs in the kidney versus untreated controls [4]: −3.09 log10 | log reduction at 50 mg/kg [4]: 1.04 | EC200 UTI IV, log10 reduction in CFUs in the kidney versus untreated controls [5]: @ 5 mpk −3.99 log10 | log reduction at 2 mg/kg [5]: 1.85
